{"source": "patent US20190343908A1", "about": "“Therapeutic Combination for the Treatment of Cancer” (Nerium Biotechnology Inc., priority 2011, published 2019)", "key": {"[1]": {"test_system": "MCF-7 (human breast cancer)", "experiment": "Sulforhodamine B viability assay, MCF-7", "format": "cell-based", "design": "key: absorbance (optical density) at 570 nm, second wavelength subtracted", "excerpt": "(§1) Three different viability assays were chosen to complement each other and yielded results dependent on concentration and cell line: the Methyl Tetrazolium dye assay, the Sulforhodamine B fluorescent dye assay, and the Crystal Violet dye assay.\n(§2) The Sulforhodamine B and Crystal Violet assays provide information about protein and were used to complement the Methyl-Tetrazolium dye assay. […] It is used for the quantification of cellular proteins of cultured cells. The assay using Crystal Violet, a dye that binds electrostatically to proteins and stains DNA, provides a reliable, simple assay for measuring viability of cells.\n(§3) The Methyl Tetrazolium, Sulforhodamine B, and Crystal Violet assays were used to assess cell viabilities. The incubation times were 24 hours, 48 hours, and 72 hours. The Nerium oleander extract Anvirzel™ (a hot water extract of oleander obtained from Salud Integral, Honduras) was tested in concentrations ranging from 0.01 ng/mL to 10 ng/mL.\n(§4) Cells were detached by trypsinization (Trypsin-0.25% EDTA, Invitrogen, 25200-072) during the logarithmic phase of culture growth and plated in 96-well plates (18.000 cells/well) (Corning, Costar 359) in a final volume of 200 μl of medium per well. […] The absorbance was measured after 24 hours, 48 hours, and 72 hours of incubation.\n(§5) For the Sulforhodamine B assay, 96-well plates were fixed by 10% trichloroacetic acid (Fluka, 91228) and were incubated at 4° C. for 1 hour. Afterwards, plates were rinsed with water and cells were stained with 0.4% Sulforhodamine B (Sigma, 341738), dissolved in 1% acetic acid (Carlo Ebra, 401422) for 15 minutes at room temperature (RT). The unbound stain was washed twice with 1% acetic acid. Finally, 10 mM Tris Buffer pH 10.5 (Sigma, T6791) was added to dissolve the dye.\n(§6) The optical density of each plate was measured on a μQuant spectrophotometer and the data were analyzed with Gen5 software (μQuant Biomolecular Spectrophotometer MQX200 and Gen5™ Microplate Data Collection & Analysis software, BioTek® Instruments. Inc, April 2008). Absorbance was measured at 570 nm for all assays and a second wavelength was measured in order to subtract noise. For the Methyl-Tetrazolium assay this second wavelength was 630 nm and for the Sulforhodamine B and Crystal Violet assays it was 690 nm."}, "[2]": {"test_system": "HCT-15 (colorectal cancer)", "experiment": "Sulforhodamine B viability assay, HCT-15", "format": "cell-based, human", "design": "key to SRB Average: absorbance (optical density) at 570 nm, second wavelength subtracted", "details": "for SRB Average 24 h / SRB Average 48 h / SRB Average 72 h: HCT-15, Run 1", "excerpt": "as §1, §2, §3, §4, §5, §6"}}}
{"compound": "N.N.[Cl][Pt][Cl]", "note": "[cisplatin]", "values": [{"measurement": "SRB Average", "setting": "[1]; MCF-7, Run 2, 24 h, 0.1 μg/ml CDDP", "result": 1.754}, {"measurement": "SRB Average", "setting": "[1]; MCF-7, Run 2, 24 h, 1 μg/ml CDDP", "result": 1.225}, {"measurement": "SRB Average", "setting": "[1]; MCF-7, Run 2, 24 h, 10 μg/ml CDDP", "result": 1.717}, {"measurement": "SRB Average", "setting": "[1]; MCF-7, Run 2, 24 h, 100 μg/ml CDDP", "result": 1.056}, {"measurement": "SRB Average", "setting": "[1]; MCF-7, Run 2, 48 h, 0.1 μg/ml CDDP", "result": 2.037}, {"measurement": "SRB Average", "setting": "[1]; MCF-7, Run 2, 48 h, 1 μg/ml CDDP", "result": 0.874}, {"measurement": "SRB Average", "setting": "[1]; MCF-7, Run 2, 48 h, 10 μg/ml CDDP", "result": 0.88}, {"measurement": "SRB Average", "setting": "[1]; MCF-7, Run 2, 48 h, 100 μg/ml CDDP", "result": 0.985}, {"measurement": "SRB Average", "setting": "[1]; MCF-7, Run 2, 72 h, 0.1 μg/ml CDDP", "result": 2.289}, {"measurement": "SRB Average", "setting": "[1]; MCF-7, Run 2, 72 h, 1 μg/ml CDDP", "result": 1.409}, {"measurement": "SRB Average", "setting": "[1]; MCF-7, Run 2, 72 h, 10 μg/ml CDDP", "result": 1.179}, {"measurement": "SRB Average", "setting": "[1]; MCF-7, Run 2, 72 h, 100 μg/ml CDDP", "result": 0.897}, {"measurement": "SRB Average", "setting": "[1]; MCF-7, Run 3, 24 h, 0.1 μg/ml CDDP", "result": 2.843}, {"measurement": "SRB Average", "setting": "[1]; MCF-7, Run 3, 24 h, 1 μg/ml CDDP", "result": 1.805}, {"measurement": "SRB Average", "setting": "[1]; MCF-7, Run 3, 24 h, 10 μg/ml CDDP", "result": 2.092}, {"measurement": "SRB Average", "setting": "[1]; MCF-7, Run 3, 24 h, 100 μg/ml CDDP", "result": 1.077}, {"measurement": "SRB Average", "setting": "[1]; MCF-7, Run 3, 48 h, 0.1 μg/ml CDDP", "result": 2.371}, {"measurement": "SRB Average", "setting": "[1]; MCF-7, Run 3, 48 h, 1 μg/ml CDDP", "result": 1.787}, {"measurement": "SRB Average", "setting": "[1]; MCF-7, Run 3, 48 h, 10 μg/ml CDDP", "result": 1.338}, {"measurement": "SRB Average", "setting": "[1]; MCF-7, Run 3, 48 h, 100 μg/ml CDDP", "result": 1.673}, {"measurement": "SRB Average", "setting": "[1]; MCF-7, Run 3, 72 h, 0.1 μg/ml CDDP", "result": 2.522}, {"measurement": "SRB Average", "setting": "[1]; MCF-7, Run 3, 72 h, 1 μg/ml CDDP", "result": 1.885}, {"measurement": "SRB Average", "setting": "[1]; MCF-7, Run 3, 72 h, 10 μg/ml CDDP", "result": 1.622}, {"measurement": "SRB Average", "setting": "[1]; MCF-7, Run 3, 72 h, 100 μg/ml CDDP", "result": 1.181}, {"measurement": "SRB Average", "setting": "[1]; MCF-7 Run 1, 24 h, 0.1 μg/ml CDDP", "result": 2.066}, {"measurement": "SRB Average", "setting": "[1]; MCF-7 Run 1, 24 h, 1 μg/ml CDDP", "result": 1.404}, {"measurement": "SRB Average", "setting": "[1]; MCF-7 Run 1, 24 h, 10 μg/ml CDDP", "result": 1.825}, {"measurement": "SRB Average", "setting": "[1]; MCF-7 Run 1, 24 h, 100 μg/ml CDDP", "result": 1.579}, {"measurement": "SRB Average", "setting": "[1]; MCF-7 Run 1, 48 h, 0.1 μg/ml CDDP", "result": 2.67}, {"measurement": "SRB Average", "setting": "[1]; MCF-7 Run 1, 48 h, 1 μg/ml CDDP", "result": 1.873}, {"measurement": "SRB Average", "setting": "[1]; MCF-7 Run 1, 48 h, 10 μg/ml CDDP", "result": 1.731}, {"measurement": "SRB Average", "setting": "[1]; MCF-7 Run 1, 48 h, 100 μg/ml CDDP", "result": 1.452}, {"measurement": "SRB Average", "setting": "[1]; MCF-7 Run 1, 72 h, 0.1 μg/ml CDDP", "result": 2.779}, {"measurement": "SRB Average", "setting": "[1]; MCF-7 Run 1, 72 h, 1 μg/ml CDDP", "result": 1.762}, {"measurement": "SRB Average", "setting": "[1]; MCF-7 Run 1, 72 h, 10 μg/ml CDDP", "result": 1.702}, {"measurement": "SRB Average", "setting": "[1]; MCF-7 Run 1, 72 h, 100 μg/ml CDDP", "result": 1.024}, {"measurement": "SRB Average 24 h", "setting": "[2]; 0.1 μg/ml CDDP", "result": 2.592}, {"measurement": "SRB Average 48 h", "setting": "[2]; 0.1 μg/ml CDDP", "result": 2.747}, {"measurement": "SRB Average 72 h", "setting": "[2]; 0.1 μg/ml CDDP", "result": 2.792}, {"measurement": "SRB Average 24 h", "setting": "[2]; 1 μg/ml CDDP", "result": 1.974}, {"measurement": "SRB Average 48 h", "setting": "[2]; 1 μg/ml CDDP", "result": 2.397}, {"measurement": "SRB Average 72 h", "setting": "[2]; 1 μg/ml CDDP", "result": 1.697}, {"measurement": "SRB Average 24 h", "setting": "[2]; 10 μg/ml CDDP", "result": 1.657}, {"measurement": "SRB Average 48 h", "setting": "[2]; 10 μg/ml CDDP", "result": 2.449}, {"measurement": "SRB Average 72 h", "setting": "[2]; 10 μg/ml CDDP", "result": 1.71}, {"measurement": "SRB Average 24 h", "setting": "[2]; 100 μg/ml CDDP", "result": 1.854}, {"measurement": "SRB Average 48 h", "setting": "[2]; 100 μg/ml CDDP", "result": 1.937}, {"measurement": "SRB Average 72 h", "setting": "[2]; 100 μg/ml CDDP", "result": 1.634}, {"measurement": "SRB Average", "setting": "[2]; Run 2, 24 h, 0.1 μg/ml CDDP", "result": 2.271}, {"measurement": "SRB Average", "setting": "[2]; Run 2, 24 h, 1 μg/ml CDDP", "result": 1.762}, {"measurement": "SRB Average", "setting": "[2]; Run 2, 24 h, 10 μg/ml CDDP", "result": 2.09}, {"measurement": "SRB Average", "setting": "[2]; Run 2, 24 h, 100 μg/ml CDDP", "result": 1.78}, {"measurement": "SRB Average", "setting": "[2]; Run 2, 48 h, 0.1 μg/ml CDDP", "result": 2.54}, {"measurement": "SRB Average", "setting": "[2]; Run 2, 48 h, 1 μg/ml CDDP", "result": 2.198}, {"measurement": "SRB Average", "setting": "[2]; Run 2, 48 h, 10 μg/ml CDDP", "result": 2.456}, {"measurement": "SRB Average", "setting": "[2]; Run 2, 48 h, 100 μg/ml CDDP", "result": 2.169}, {"measurement": "SRB Average", "setting": "[2]; Run 2, 72 h, 0.1 μg/ml CDDP", "result": 2.797}, {"measurement": "SRB Average", "setting": "[2]; Run 2, 72 h, 1 μg/ml CDDP", "result": 2.068}, {"measurement": "SRB Average", "setting": "[2]; Run 2, 72 h, 10 μg/ml CDDP", "result": 1.85}, {"measurement": "SRB Average", "setting": "[2]; Run 2, 72 h, 100 μg/ml CDDP", "result": 1.585}, {"measurement": "SRB Average", "setting": "[2]; Run 3, 24 h, 0.1 μg/ml CDDP", "result": 2.578}, {"measurement": "SRB Average", "setting": "[2]; Run 3, 24 h, 1 μg/ml CDDP", "result": 1.713}, {"measurement": "SRB Average", "setting": "[2]; Run 3, 24 h, 10 μg/ml CDDP", "result": 1.941}, {"measurement": "SRB Average", "setting": "[2]; Run 3, 24 h, 100 μg/ml CDDP", "result": 1.254}, {"measurement": "SRB Average", "setting": "[2]; Run 3, 48 h, 0.1 μg/ml CDDP", "result": 2.768}, {"measurement": "SRB Average", "setting": "[2]; Run 3, 48 h, 1 μg/ml CDDP", "result": 1.845}, {"measurement": "SRB Average", "setting": "[2]; Run 3, 48 h, 10 μg/ml CDDP", "result": 2.104}, {"measurement": "SRB Average", "setting": "[2]; Run 3, 48 h, 100 μg/ml CDDP", "result": 1.77}, {"measurement": "SRB Average", "setting": "[2]; Run 3, 72 h, 0.1 μg/ml CDDP", "result": 2.96}, {"measurement": "SRB Average", "setting": "[2]; Run 3, 72 h, 1 μg/ml CDDP", "result": 1.752}, {"measurement": "SRB Average", "setting": "[2]; Run 3, 72 h, 10 μg/ml CDDP", "result": 2.063}, {"measurement": "SRB Average", "setting": "[2]; Run 3, 72 h, 100 μg/ml CDDP", "result": 1.935}]}
